Laboratory results published in ChEMBL document CHEMBL3137667, “[Drug-induced liver injury; fourteenth updated edition of the bibliographic database of liver injuries and related drugs]” (Gastroenterol Clin Biol, 2004).
Where a SMILES comes first, the peptide text is derived from it. Bridges are numbered along the chain shown (N, C = ends). [ ]: non-standard residue; d: D form. The star is where a group is joined. Threoninol(2S,3R) = C[C@@H](O)[C@H](CO)N*

Columns and labels:
[1] = human, serum
[2] = Times to onset, minimal and maximal, observed in the indexed observations. [column 'DELAI' in source]; settings: human
[3] = Comments (NB not yet translated). [column 'COMMENTAIRES' in source]; settings: human
[4] = human
[5] = human; remark: listed apart in the source
[6] = Proposed mechanism(s) of liver damage. [column 'MEC' in source]; settings: human
[7] = Highest frequency of acute liver toxicity observed during clinical trials, expressed as a percentage. [column '% AIGUE' in source]; settings: human
[8] = human, serum, 4383 h
[9] = human; remark: listed apart in the source
[10] = human; remark: listed apart in the source
[11] = Presence of at least one case with successful reintroduction. [column 'REINT' in source]; settings: human
[12] = human, serum; remark: listed apart in the source
[13] = human; remark: listed apart in the source
[14] = human; remark: listed apart in the source
[15] = human; remark: listed apart in the source
[16] = Highest frequency of moderate liver toxicity observed during clinical trials, expressed as a percentage. [column '% BIOL' in source]; settings: human
[17] = human; remark: listed apart in the source
[18] = human; remark: listed apart in the source
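Throughout, for Hepatotoxicity (association with vascular disease): count of indexed literature references reporting vascular liver injury in humans, e.g. peliosis hepatitis, hepatic veno-occlusive disease or Budd-Chiari syndrome.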
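Throughout, for Hepatotoxicity (benign tumour): value is a count of indexed literature references citing a benign tumour confirmed by histopathology.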
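Throughout, for Hepatotoxicity (choleostasis): human cholestatic liver injury, shown by histopathology or by peak ALT or AST elevation over alkaline phosphatase ratio below 2, value counts indexed literature reports.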
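Throughout, for Hepatotoxicity (chronic liver disease): chronic liver injury confirmed by histopathology or persistently raised serum aminotransferase activity beyond 6 months, value given as the count of indexed literature references.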
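Throughout, for Hepatotoxicity (cirrhosis): value is a count of indexed literature references reporting cirrhosis confirmed by histopathology.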
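Throughout, for Hepatotoxicity (cytolytic): human cytolytic liver injury, shown by histopathology or by a ratio above 5 of peak ALT or AST elevation to alkaline phosphatase elevation, value counts indexed references.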
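Throughout, for Hepatotoxicity (granulomatous hepatitis): value is a count of indexed literature references reporting granulomatous liver disease confirmed by histopathology.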
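Throughout, for Hepatotoxicity (malignant tumour): malignant tumour confirmed by histopathology, value gives the count of indexed literature references reporting it.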
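Throughout, for Hepatotoxicity (severe hepatitis): human clinical data: severe hepatitis, meaning potentially life-threatening liver failure or clinically observed cases, the value counts how many indexed literature references report it.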
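Throughout, for Hepatotoxicity (steatosis): steatosis confirmed by histopathology, value is the count of indexed references.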

SMILES | Hepatotoxicity (acute) [1] | Hepatotoxicity (time to onset) [2] | Hepatotoxicity (comment) [3] | Hepatotoxicity (steatosis) [4] | Hepatotoxicity (association with vascular disease) [5] | Hepatotoxicity (mechanism) [6] | Hepatotoxicity (acute) [7] [%] | Hepatotoxicity (chronic liver disease) [8] | Hepatotoxicity (granulomatous hepatitis) [9] | Hepatotoxicity (choleostasis) [10] | Hepatotoxicity (successful reintroduction) [11] | Hepatotoxicity (moderate) [12] | Hepatotoxicity (cirrhosis) [13] | Hepatotoxicity (severe hepatitis) [14] | Hepatotoxicity (malignant tumour) [15] | Hepatotoxicity (moderate) [16] [%] | Hepatotoxicity (cytolytic) [17] | Hepatotoxicity (benign tumour) [18] | also measured
O=C(O)CCCc1ccc(N(CCCl)CCCl)cc1 [CHLORAMBUCIL] | 7 | 2 weeks - 25 months | PERICHOLANGITE REACTIVATION_HVB | 0 | 0 | Allergic | 4.8 | 1 | 0 | 3 | yes | 1 | 1 | 1 | 1 | 5.3 | 4 | 0 | 
C[C@@H](O)[C@H](CO)NC(=O)[C@@H]1CSSC[C@H](NC(=O)[C@H](N)Cc2ccccc2)C(=O)N[C@@H](Cc2ccccc2)C(=O)N[C@H](Cc2c[nH]c3ccccc23)C(=O)N[C@@H](CCCCN)C(=O)N[C@@H]([C@@H](C)O)C(=O)N1 (H-[dF]CF[dW]KTC-{Threoninol(2S,3R)}; disulfide 2-7) | 3 | 1 day - 14 months | BOUE_BILIAIRE LITHIASE | 0 | 0 | Dose-dependant | 0 | 0 | 0 | 1 | yes | 8 | 0 | 1 | 0 | 17.6 | 3 | 0 | 
Cc1cn([C@H]2C=C[C@@H](CO)O2)c(=O)[nH]c1=O [STAVUDINE] | 29 | 6 days - 5 years | REACTIVATION_HVB/HVC | 25 | 0 | Dose-dependant, Mitochondrial toxicity, Toxic | 17.1 | 0 | 0 | 5 | yes | 13 | 0 | 14 | 0 | 65.6 | 22 | 0 | 
CC[C@H]1[C@@H]2C[C@H]3[C@@H]4N(C)c5ccccc5[C@]45C[C@@H]([C@@H]2[C@H]5O)N3[C@@H]1O [AJMALINE] | 29 | 1 day - 4 years | CHOLESTASE_PROLONGEE RC/AMIODARONE | 0 | 0 | Allergic | 0.1 | 1 | 0 | 28 | yes | 2 | 1 | 0 | 0 | 0 | 6 | 0 | 
CC1(C)S[C@@H]2[C@H](NC(=O)[C@H](N)c3ccc(O)cc3)C(=O)N2[C@H]1C(=O)O.O=C(O)[C@H]1/C(=C/CO)O[C@@H]2CC(=O)N21 | 74 | < 1 day - 15 weeks | CHOLANGITE #CBP AC_ANTI-N RC/ERYTHROMYCINE | 7 | 0 | Allergic | 0.3 | 0 | 6 | 61 | yes | 15 | 1 | 8 | 0 | 15 | 21 | 0 | 
CN(C)CCC=C1c2ccccc2COc2ccccc21 [DOXEPIN] | 2 | 1 week | AC_ANTI-ML | 0 | 0 | Allergic | 0 | 0 | 0 | 1 | yes | 3 | 0 | 0 | 0 | 33.3 | 2 | 0 | 
CC(C)(S)[C@@H](N)C(=O)O [PENICILLAMINE] | 31 | 4 days - 2 years | CHOLESTASE_PROLONGEE CHOLANGITE | 5 | 0 | Allergic | 0 | 1 | 2 | 28 | yes | 12 | 0 | 0 | 0 | 6 | 5 | 0 | 
CC(C)OC(=O)C(C)(C)Oc1ccc(C(=O)c2ccc(Cl)cc2)cc1 [FENOFIBRATE] | 13 | 1 day - 3 years | RC/CLOFIBRATE CHOLESTASE_PROLONGEE DUCTOPENIE AC_ANTI-ML/-N | 0 | 0 | Allergic |  | 4 | 0 | 5 | yes | 27 | 1 |  | 0 |  | 11 | 0 | Hepatotoxicity (acute) ([7]; Liver): 2.7%; Hepatotoxicity (severe hepatitis) ([14]; Liver): 0; Hepatotoxicity (moderate) ([16]; Liver): 52.9%
CCOC(=O)NNc1nncc2ccccc12 [TODRALAZINE] | 3 | 11 days - 2 years | AC_ANTI-N/-MF | 0 | 0 | Allergic | 0 | 0 | 0 | 0 | yes | 0 | 0 | 2 | 0 | 0 | 3 | 0 | 
